Patent US20250000868A1, “USE OF ADENOSINE A2B RECEPTOR AS TARGET IN DRUGS FOR PREVENTION AND/OR TREATMENT OF PRURITUS” (The Fourth Affiliated Hospital, ZJU, priority 2023, published 2025)
Entries after “also recorded” stand apart in the source; their conditions may differ.

How the values were obtained:
adenosine A2B receptor [1] = target: T1, adenosine A2B receptor (Mus musculus, UniProt Q60614); test: Histamine-induced scratching behavioral experiment; assay type: in vivo; conditions: for number of histamine-induced scratches: within 30 min before histamine 250 μg/50 μL s.c. neck, scratches recorded within 30 min
T1 construct: from tissue; host or cells: living mouse; intrathecal dosing, receptor expressed in dorsal root ganglion neurons
T1 sequence (Q60614 1-332): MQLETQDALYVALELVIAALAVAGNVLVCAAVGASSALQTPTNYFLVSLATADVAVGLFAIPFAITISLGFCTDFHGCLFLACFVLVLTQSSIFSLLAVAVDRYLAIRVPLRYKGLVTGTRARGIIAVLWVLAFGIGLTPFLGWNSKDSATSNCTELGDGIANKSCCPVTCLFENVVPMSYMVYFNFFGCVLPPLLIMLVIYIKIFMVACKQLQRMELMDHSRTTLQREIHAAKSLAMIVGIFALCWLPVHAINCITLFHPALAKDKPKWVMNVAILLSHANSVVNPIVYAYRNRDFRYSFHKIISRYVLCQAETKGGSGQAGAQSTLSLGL
Procedure: (§1) Refer to the prior art (Jang et al., 2015) for scratching behavior. The specific operation method was as follows: each mouse neck hair was shaved two days before the experiment, and the mouse was housed in a transparent organic plastic chamber to receive acclimatization training for two consecutive days, at least 1 h a day. Adjacent transparent plastic chambers were separated by a piece of white paper to eliminate mutual interference between mice. On the day of the experiment, histamine (250 μg/50 μL) was subcutaneously injected into the mouse neck and the mice were immediately placed in the transparent plastic chamber to record scratching behaviors within 30 min using a camera. One effective scratch was defined as follows: a mouse lifted its hind leg to scratch the skin at the […] injection site and put the hind leg down, and despite the number of scratches in the interval between lifting the hind leg and putting it down, an effective scratching behavior was considered. To evaluate the antipruritic effect of PSB-603, the mice received an intrathecal injection of PSB-603 (the administration dose was 10 μL, and the dosing concentration was 1 or 10 μM) within 30 min before histamine injection.
(§2) Using a pharmacological method, the adenosine A2B receptor activity is blocked by intrathecal injection of selective adenosine A2B receptor antagonist PSB-603. […] Moreover, alleviating the effect of PSB-603 on scratch is related to the dose. […] Therefore, inhibition of the adenosine A2B receptor is an effective way to treat pruritus.

adenosine A2B receptor [2] = target: T1, adenosine A2B receptor; test: Chloroquine-induced scratching behavioral experiment; assay type: in vivo; conditions: for number of chloroquine-induced scratches: within 30 min before chloroquine 200 μg/50 μL s.c. neck, scratches recorded within 30 min
Procedure: as §1, with “the experiment, chloroquine (200 μg/50 μL)” for “the experiment, histamine (250 μg/50 μL)”, “concentration was 1, 10 or 20” for “concentration was 1 or 10”, “10 or 20 μM) within” for “1 or 10 μM) within”, “min before chloroquine injection.” for “min before histamine injection.”
as §2

[3] = PSB-603 intrathecal 10 μL at 10 μM

SMILES: CCCn1c(=O)[nH]c2nc(-c3ccc(S(=O)(=O)N4CCN(c5ccc(Cl)cc5)CC4)cc3)[nH]c2c1=O [PSB-603]
- number of histamine-induced scratches (adenosine A2B receptor [1]; [3]): reduces the number of histamine-induced scratches
- number of histamine-induced scratches (adenosine A2B receptor [1]; PSB-603 intrathecal 10 μL at dose of 1 μM): the number of animal scratches cannot be reduced
- histamine-induced scratching behaviors, overall effect (adenosine A2B receptor [1]; intrathecal injection of PSB-603 in advance, 1 or 10 μM, FIG. 3C): dose-dependent inhibition; also recorded: can effectively prevent histamine-induced scratching behaviors
- number of chloroquine-induced scratches (adenosine A2B receptor [2]; [3]): reduces the number of chloroquine-induced scratches
- number of chloroquine-induced scratches (adenosine A2B receptor [2]; PSB-603 intrathecal 10 μL at 20 μM): reduces the number of chloroquine-induced scratches
- chloroquine-induced scratching behaviors, overall effect (adenosine A2B receptor [2]; intrathecal injection of PSB-603 in advance, 1, 10 or 20 μM, FIG. 4): dose-dependent inhibition; also recorded: can effectively prevent chloroquine-induced scratching behaviors
